{"source": "patent US20140088045A1", "about": "“PRODUCT COMPRISING A NICOTINE-CONTAINING MATERIAL AND AN ANTI-CANCER AGENT” (priority 2012, published 2014)", "key": {"[1]": {"test": "Drug levels in lungs and plasma after inhalation vs oral gavage", "format": "in vivo, mice", "text": "The oral dose was 23 times higher than the inhalational dose."}, "[2]": {"test_system": "A549 xenografts", "test": "A549 subcutaneous xenografts, PS V and curcumin", "format": "in vivo, female nude mice", "conditions": "for inhibition of tumor growth (in words): A549 xenografts, daily treatment to day 36; for reduction in tumor weight: end of study, vs control", "protocol": "Polymeric nanoparticles of poly(ε-caprolactone) (11000)-polyethylene glycol (5000) with entrapped curcumin were prepared according to the nanopercipitation-solvent displacement method. […] Then, the mice were inoculated subcutaneously on both flanks with […] cells (2×10^6 each). The treatment was resumed one day after tumor implantation and continued daily until the end of the study."}, "[3]": {"test_system": "A549 human lung cancer cells", "test": "A549 subcutaneous xenografts, PS V and erlotinib", "format": "in vivo, nude mice", "conditions": "by day 14; PS V 80 mg/kg ip, erlotinib 75 mg/kg po, 6 days/week; starting tumor volume subtracted", "text": "TO this end, we inoculated A549 human lung cancer cells subcutaneously into nude mice, following standard protocols."}, "[4]": {"test_system": "NF-κB", "test": "NF-κB activation in cultured cells by Electrophoretic Mobility Shift Assay (EMSA)", "format": "cell-based, human", "conditions": "cultured A549 cells; 1-2× its IC50 concentration for 6 h"}, "[5]": {"test_system": "NF-κB", "test": "NF-κB activation in orthotopic xenografts by immunohistochemistry", "format": "in vivo, nude mice", "conditions": "lung tissue of orthotopic A549 xenografts, PS V treatment as in Example 1", "protocol": "We evaluated the effect of PS V on the activation of NF-κB, the master regulator of inflammation, in cultured A549 human lung cancer cells as well as in human lung cancer xenografts from the same cells.\nWe established orthotopic xenografts in nude mice as described in Example 1. Following treatment of the mice with PS V in a similar manner, lung tissue was evaluated by immunohistochemistry, following standard protocols. We used an antibody that assesses activation of NF-κB by phosphorylation (Cell Signaling, Danvers, Mass.). FIG. 10 provides inhibitory effect of PS V on the activation of NF-κB."}, "[6]": {"test_system": "human cancer cells", "test": "Cytotoxicity to human cancer cells", "format": "cell-based", "conditions": "intact PS V vs its three metabolites"}, "[7]": {"test_system": "inflammation", "conditions": "applied systemically or topically; cited from earlier work"}, "[8]": {"conditions": "mouse, in vivo, inhaled or intranasal", "method": "(§1) After 8 min of inhalation treatment, BALB/c nude mice were euthanized at various time points. Drug levels were analyzed by HPLC in plasma and lung tissues."}, "[9]": {"test": "Pharmacokinetic parameters after inhalational administration (HPLC, lung and plasma)", "conditions": "after 8 min inhalation of PS V", "method": "as §1"}, "[10]": {"test_system": "lung cancer", "conditions": "pre-clinical models of lung cancer; cited from earlier work"}, "[11]": {"test": "Aerosolization of compounds added to smoking tobacco (filter capture, HPLC)", "format": "physicochemical", "conditions": "lit cigarette, alone or mixed with erlotinib", "from_the_text": "We used an experimental system that recapitulates the essential features of the act of smoking (FIG. 8). In this apparatus, smoke from the lit cigarette was drawn through the tubing of the apparatus by external suction. […] The aerosolized test drug was deposited onto this filter. At the conclusion of the study, the filter was removed and the deposited test drug was extracted with acetonitrile and subjected to HPLC analysis, as already described.\nFIG. 8. depicts the apparatus for the aerosolization of anticancer compounds. Upper panel: The test compound is added to the cigarette. […] When the system was turned on, the temperature in the heating chamber reached ˜200° C. Heating energy was provided by the battery through a resistance wire inside the heating chamber. Unimpeded flow of the gas phase in the ceramic chamber was allowed by its design; the arrows depict such flow."}}, "data": [{"smiles": "CCOP(=O)(OCC)OCCCCOC(=O)CC1=C(C)/C(=C/c2ccc([S+](C)[O-])cc2)c2ccc(F)cc21", "note": "(stereo not drawn) [PS V, phospho-sulindac]", "values": [{"measurement": "total drug levels (PS V plus its metabolites) in lungs", "setting": "[1]; inhalation 6.5 mg/kg compared to oral 150 mg/kg", "value": "significantly higher"}, {"measurement": "level of intact PS V in lungs", "setting": "[1]; inhalational 6.5 mg/kg body weight", "value": "> 20", "unit": "nmol/g"}, {"measurement": "level of intact PS V in lungs", "setting": "[1]; oral 150 mg/kg body weight", "value": "< 2", "unit": "nmol/g"}, {"measurement": "PS levels in plasma", "setting": "[1]; plasma", "value": "undetectable"}, {"measurement": "inhibition of tumor growth (in words)", "setting": "[2]", "value": "small inhibition of tumor growth"}, {"measurement": "average tumor volume at the end of the study", "setting": "[2]; day 36, PS V 200 mg/kg/d, curcumin 500 mg/kg/d, control 521±76 mm^3", "value": "419±36", "unit": "mm^3"}, {"measurement": "reduction in tumor weight", "setting": "[2]", "value": 27, "unit": "%"}, {"measurement": "reduced tumor volume compared to controls", "setting": "[3]", "value": 49, "unit": "%"}, {"measurement": "NF-κB activation (EMSA)", "setting": "[4]", "value": "suppressed NF-κB activation"}, {"measurement": "activation of NF-κB (phosphorylation, immunohistochemistry)", "setting": "[5]", "value": "suppresses the activation of NF-κB"}, {"measurement": "cytotoxicity compared with sulindac, sulindac sulfide XI and sulindac sulfone XII", "setting": "[6]", "value": "more cytotoxic"}, {"measurement": "effect on inflammation", "setting": "[7]", "value": "eliminated or greatly reduced inflammation"}]}, {"smiles": "CC1=C(CC(=O)O)c2cc(F)ccc2/C1=C\\c1ccc(S(C)(=O)=O)cc1", "note": "[Sulindac sulfone XII, sulindac sulfone]", "values": [{"measurement": "Cmax", "setting": "[8]", "value": 4.6, "unit": "nmol/g"}]}, {"smiles": "CC1=C(CC(=O)O)c2cc(F)ccc2/C1=C\\c1ccc([S+](C)[O-])cc1", "note": "(stereo not drawn) [Sulindac, sulindac]", "values": [{"measurement": "Tmax", "setting": "[9]; lung", "value": 0, "unit": "h"}, {"measurement": "Tmax", "setting": "[9]; plasma", "value": 0, "unit": "h"}]}, {"smiles": "COc1cc(/C=C/C(=O)CC(=O)/C=C/c2ccc(O)c(OC)c2)ccc1O", "note": "[curcumin, reference compound]", "values": [{"measurement": "inhibition of tumor growth (in words)", "setting": "[2]", "value": "ineffective"}, {"measurement": "reduction in tumor weight", "setting": "[2]", "value": "not in the curcumin-treated group"}, {"measurement": "efficacy as a single agent", "setting": "[10]", "value": "< 30", "unit": "%"}]}, {"smiles": "C#Cc1cccc(Nc2ncnc3cc(OCCOC)c(OCCOC)cc23)c1", "note": "[erlotinib, reference compound]", "values": [{"measurement": "reduced tumor volume compared to controls", "setting": "[3]", "value": 74, "unit": "%"}]}, {"smiles": "CCOP(=O)(OCC)OCCCCOC(=O)c1ccccc1OC(C)=O", "note": "[phospho-aspirin 119, phospho-aspirin]", "values": [{"measurement": "effect on inflammation", "setting": "[7]", "value": "eliminated or greatly reduced inflammation"}]}, {"smiles": "CCOP(=O)(OCC)OCCCCNC(=O)C(C)c1ccc(CC(C)C)cc1", "note": "(stereo not drawn) [phospho-ibuprofen amide IV, phospho-ibuprofen amide]", "values": [{"measurement": "aerosolization when added to smoking tobacco", "setting": "[11]", "value": "aerosolized successfully"}]}]}
